What was measured:
Type in all cases: binding
Details in all cases: Compound Concentration 10 µM
[1] = biological target: T1, panel of 442 kinases (Homo sapiens, UniProt P49674)
T1 construct: purchased KINOMEscan
Source text: (§1) We assessed the selectivity of members of this scaffold using the KINOMEscan methodology across a near comprehensive panel of 442 kinases [[18,27]].

[2] = biological target: T2, panel of 442 kinases (Homo sapiens, UniProt Q9P286)
T2 construct: purchased KINOMEscan
Source text: as §1

[3] = biological target: T3, panel of 442 kinases (Homo sapiens, UniProt P17948)
T3 construct: purchased KINOMEscan
T3 sequence (P17948 27-1338): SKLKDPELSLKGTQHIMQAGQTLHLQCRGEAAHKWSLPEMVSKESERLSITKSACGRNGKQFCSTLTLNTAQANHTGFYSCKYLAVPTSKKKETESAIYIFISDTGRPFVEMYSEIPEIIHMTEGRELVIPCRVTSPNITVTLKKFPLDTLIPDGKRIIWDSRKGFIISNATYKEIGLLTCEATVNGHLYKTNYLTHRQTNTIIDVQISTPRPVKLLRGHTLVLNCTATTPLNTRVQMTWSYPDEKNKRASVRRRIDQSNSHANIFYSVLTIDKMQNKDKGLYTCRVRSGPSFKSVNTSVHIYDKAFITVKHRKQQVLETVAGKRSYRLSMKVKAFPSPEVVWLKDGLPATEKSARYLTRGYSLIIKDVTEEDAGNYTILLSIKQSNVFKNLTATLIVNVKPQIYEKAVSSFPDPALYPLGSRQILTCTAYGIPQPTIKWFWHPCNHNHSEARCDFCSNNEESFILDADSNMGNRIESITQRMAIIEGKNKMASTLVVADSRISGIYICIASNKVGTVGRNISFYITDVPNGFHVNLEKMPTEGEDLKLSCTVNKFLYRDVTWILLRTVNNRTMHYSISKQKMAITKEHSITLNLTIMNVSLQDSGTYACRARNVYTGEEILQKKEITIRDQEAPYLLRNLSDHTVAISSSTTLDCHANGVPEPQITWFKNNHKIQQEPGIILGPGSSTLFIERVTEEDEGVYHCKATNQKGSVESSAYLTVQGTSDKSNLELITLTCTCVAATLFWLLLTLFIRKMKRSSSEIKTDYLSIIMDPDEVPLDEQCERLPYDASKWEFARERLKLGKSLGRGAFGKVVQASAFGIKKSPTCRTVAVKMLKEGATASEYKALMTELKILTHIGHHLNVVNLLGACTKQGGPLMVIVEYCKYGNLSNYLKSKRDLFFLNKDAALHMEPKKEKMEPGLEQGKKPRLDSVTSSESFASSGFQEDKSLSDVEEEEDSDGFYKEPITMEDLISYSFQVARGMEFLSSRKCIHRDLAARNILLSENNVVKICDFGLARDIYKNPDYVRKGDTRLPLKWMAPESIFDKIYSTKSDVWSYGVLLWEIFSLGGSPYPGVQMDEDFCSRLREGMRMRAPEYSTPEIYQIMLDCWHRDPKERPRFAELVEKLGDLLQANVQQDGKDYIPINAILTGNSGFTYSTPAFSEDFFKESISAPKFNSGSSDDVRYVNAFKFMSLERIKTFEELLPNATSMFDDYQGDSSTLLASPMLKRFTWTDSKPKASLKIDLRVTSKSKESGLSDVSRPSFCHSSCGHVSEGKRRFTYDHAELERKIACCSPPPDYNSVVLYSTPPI
Source text: as §1

[4] = biological target: T4, panel of 442 kinases (Homo sapiens, UniProt Q8TDX7)
T4 construct: purchased KINOMEscan
T4 sequence (Q8TDX7 whole entry): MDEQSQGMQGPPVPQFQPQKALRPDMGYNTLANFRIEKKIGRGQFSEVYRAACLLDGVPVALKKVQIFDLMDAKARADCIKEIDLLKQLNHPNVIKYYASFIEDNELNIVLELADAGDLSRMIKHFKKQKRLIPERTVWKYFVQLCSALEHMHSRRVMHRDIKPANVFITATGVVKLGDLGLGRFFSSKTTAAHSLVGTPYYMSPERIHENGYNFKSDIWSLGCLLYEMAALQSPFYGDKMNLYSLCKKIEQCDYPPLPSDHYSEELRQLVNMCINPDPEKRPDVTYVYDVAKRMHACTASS
Source text: as §1

T1 sequence (P49674 whole entry): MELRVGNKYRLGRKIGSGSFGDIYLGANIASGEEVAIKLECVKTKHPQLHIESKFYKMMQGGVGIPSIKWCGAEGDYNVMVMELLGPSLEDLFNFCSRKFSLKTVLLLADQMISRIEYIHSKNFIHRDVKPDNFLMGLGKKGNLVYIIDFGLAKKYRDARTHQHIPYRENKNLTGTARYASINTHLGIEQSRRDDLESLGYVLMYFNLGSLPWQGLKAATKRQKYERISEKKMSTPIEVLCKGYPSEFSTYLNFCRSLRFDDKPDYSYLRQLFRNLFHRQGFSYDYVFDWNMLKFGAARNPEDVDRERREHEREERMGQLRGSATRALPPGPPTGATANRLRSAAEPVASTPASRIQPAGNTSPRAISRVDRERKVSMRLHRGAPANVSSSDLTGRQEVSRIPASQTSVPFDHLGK
T2 sequence (Q9P286 whole entry): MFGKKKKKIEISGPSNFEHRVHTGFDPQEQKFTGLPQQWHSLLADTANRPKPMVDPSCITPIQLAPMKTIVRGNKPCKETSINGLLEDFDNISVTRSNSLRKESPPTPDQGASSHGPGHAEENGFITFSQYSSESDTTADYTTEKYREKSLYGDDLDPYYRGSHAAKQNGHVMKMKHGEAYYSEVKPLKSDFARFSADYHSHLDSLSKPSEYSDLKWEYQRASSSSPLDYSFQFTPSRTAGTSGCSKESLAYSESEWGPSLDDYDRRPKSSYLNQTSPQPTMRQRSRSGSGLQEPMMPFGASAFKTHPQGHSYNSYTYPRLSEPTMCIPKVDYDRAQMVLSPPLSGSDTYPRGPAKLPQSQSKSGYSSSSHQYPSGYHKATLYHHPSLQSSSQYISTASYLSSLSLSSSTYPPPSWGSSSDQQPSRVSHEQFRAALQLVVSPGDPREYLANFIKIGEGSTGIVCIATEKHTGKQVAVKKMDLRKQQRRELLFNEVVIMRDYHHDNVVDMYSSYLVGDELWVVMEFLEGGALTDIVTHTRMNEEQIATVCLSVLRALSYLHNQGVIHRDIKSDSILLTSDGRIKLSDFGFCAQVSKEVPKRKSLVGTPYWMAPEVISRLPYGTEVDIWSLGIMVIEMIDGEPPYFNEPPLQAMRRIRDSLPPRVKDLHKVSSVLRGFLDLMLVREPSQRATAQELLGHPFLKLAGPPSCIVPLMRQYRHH

Question: How did the “KINOMEscan: CSNK1E” value [1] turn out when `COc1cc(C(=O)N2CCC(N3CCN(C)CC3)CC2)ccc1Nc1ncc2c(n1)N1CCc3cccc(c31)C(=O)N2C` [Compound 24] was run?
Answer: 81

Question: How did the “KINOMEscan: PAK7” value [2] turn out when `CCOc1cc(C(=O)N2CCC(N3CCN(C)CC3)CC2)ccc1Nc1ncc2c(n1)N(C1CCCC1)c1ccccc1C(=O)N2C` [Compound 26] was run?
Answer: 100

Question: And the “KINOMEscan: FLT1” value [3]?
Answer: 100

Question: And the “KINOMEscan: CSNK1E” value [1]?
Answer: 100

Question: And the “KINOMEscan: NEK7” value [4]?
Answer: 100

Question: Which results are given for `COc1cc(C(=O)N2CCC(N3CCN(C)CC3)CC2)ccc1Nc1ncc2c(n1)N(C1CCCC1)c1ccccc1C(=O)N2C` [Compound 25, 11-cyclopentyl-2-((2-methoxy-4-(4-(4-methylpiperazin-1-yl)piperidine-1-carbonyl)phenyl)amino)-5-methyl-5H-benzo[e]pyrimido[5,4-b][1,4]diazepin-6(11H)-one]?
Answer: KINOMEscan: PAK7 [2]: 100; KINOMEscan: FLT1 [3]: 100; KINOMEscan: CSNK1E [1]: 100; KINOMEscan: NEK7 [4]: 100

Question: `COc1cc(C(=O)N2CCC(N3CCN(C)CC3)CC2)ccc1Nc1ncc2c(n1)N(C)c1ccccc1C(=O)N2C` [15 (LRRK2-IN-1)] was tested. Which “KINOMEscan: PAK7” value [2] did it give?
Answer: 96

Question: What about the “KINOMEscan: FLT1” value [3] of the same compound?
Answer: 100

Question: What about the “KINOMEscan: CSNK1E” value [1] of the same compound?
Answer: 95

Question: And the “KINOMEscan: NEK7” value [4]?
Answer: 100
